Laboratory results taken from patent US10660928B2, “Pharmaceutical composition containing combination extracts of Moutan Root Bark, Angelica Dahurica Root, bupleurum root or fractions thereof for prevention and treatment of neurodegenerative disorder” (UNIVERSITY-INDUSTRY COOPERATION GROUP OF KYUNG HEE …, priority 2014, dated 2020).

Assays:
SH-SY5Y cells [1] = experiment: ATP assay, endoplasmic reticulum stress induced by thapsigargin or tunicamycin; format: cell-based, human; settings: treatment 0.5 μg/ml
Protocol: Particularly, SH-SY5Y cells were cultured by the same manner as described in Experimental Example <2-2>, and endoplasmic reticulum stress was induced. Then, the intracellular ATP level was measured by the same manner as described in Experimental Example <1-3>. The normal control was not treated with the extract of the invention or the active component thereof but treated with DMSO alone. All the results were presented as % by the normal control to present the intracellular ATP level. The negative control was not treated with the extract or the active component but treated with 0.5 μg/ml of thapsigargin or 1.0 μg/ml of tunicamycin alone to induce endoplasmic reticulum stress. Then, the Intracellular ATP level was measured by the same manner as described above.

[2] = tested on: SH-SY5Y, the human neuroblastoma cell line; experiment: Cell survival rate (calcein) in normal cells, cytotoxicity; format: cell-based; settings: human, 4 h, 0.5 μg/ml
Protocol: Particularly, SH-SY5Y, the human neuroblastoma cell line, was inoculated in DMEM/F12 (Dulbeco's Modified Eagle's Medium & Ham's F12; Gibco, USA) supplemented with 10% FBS, followed by culture in a 37° C., 5% CO2/95% air (O2) incubator. Then, the cultured cells were transferred into a serum free medium at the density of 2.5×10^4 cells/well. […] The cells were collected and the cell survival rate was measured by using calcein. The survival rate of the cells that were increased or decreased compared with that of the normal control cells not-treated with the extract or its active component above and instead treated with DMSO was calculated and presented as percentage (%). Particularly, SH-SY5Y cells were cultured by the same manner as described in Experimental Example <1-1>. The cultured cells were transferred in a serum free medium at the density of 2.5×10^4 cells/well. […] The cells were collected and the cell survival rate was measured by using calcein. The cell survival rate that was increased or decreased compared with that of the normal control group not-treated with the extract or its active component above and instead treated with DMSO was calculated and presented as percentage (%).

XBP1p = experiment: RT-PCR of endoplasmic reticulum stress marker XBP1p, thapsigargin; format: cell-based, human; settings: treatment 0.5 μg/ml, thapsigargin 0.5 μg/ml; negative control 100.00
Protocol: (§1) Particularly, SH-SY5Y cells were cultured by the same manner as described in Experimental Example <2-2>, and endoplasmic reticulum stress was induced. Then, RT-PCR was performed with the cells having endoplasmic reticulum stress by the same manner as described in Experimental Example <1-4>, followed by electrophoresis to investigate the expression levels of GRP78 and XBP1p genes on 1.5% agarose gel under UV. The normal control was not treated with the extract of the invention or the active component thereof but treated with DMSO alone. The negative control was not treated with the extract or the active component but treated with 0.5 μg/ml of thapsigargin alone to induce endoplasmic reticulum stress. Then, the expression of the endoplasmic reticulum stress marker gene was confirmed by the same manner as described above.
(§2) Particularly, SH-SY5Y cells were cultured by the same manner as described in Experimental Example <2-2>, and endoplasmic reticulum stress was induced. Then, RT-PCR was performed with the cells having endoplasmic reticulum stress by the same manner as described in Experimental Example <1-4>, followed by electrophoresis to investigate the expression levels of GRP78 and XBP1p genes on 1.5% agarose gel under UV. The normal control was not treated with the extract of the invention but treated with DMSO alone. […]

SH-SY5Y cells [3] = experiment: MTT assay, endoplasmic reticulum stress induced by thapsigargin or tunicamycin; format: cell-based, human; settings: treatment 0.5 μg/ml
Protocol: Particularly, SH-SY5Y cells were cultured by the same manner as described in Experimental Example <1-2>. The cells were treated with 1.0 ug/ml of the Angelica Dahurica Root extract prepared in Example <1-2> or 0.5 μg/ml or 1.0 μg/ml of Imperatorin, the active component thereof, followed by culture for 4 hours. The cells were treated with 0.5 μg/ml of thapsigargin (Thap) or 1 μg/ml of tunicamycin (Tuni), followed by culture for 24 hours to induce endoplasmic reticulum stress. Then, MTT assay was performed by the same manner as described in Experimental Example <1-2>. Compared with the normal control cells not treated with the extract or the active component thereof but treated with DMSO, the damage of mitochondria complex 1 in the cells, either increased or decreased, was investigated. The negative control was treated with 0.5 μg/ml of thapsigargin or 1 μg/ml of tunicamycin to cause endoplasmic reticulum stress but not treated with the extract or the active component thereof, followed by MTT assay by the same manner as described above.

GRP78 = experiment: RT-PCR of endoplasmic reticulum stress marker GRP78, thapsigargin; format: cell-based, human; settings: treatment 0.5 μg/ml, thapsigargin 0.5 μg/ml; negative control 100.00
Protocol: as §1, §2

SMILES: CC(C)=CCOc1c2occc2cc2ccc(=O)oc12 [Imperatorin, 9-[(3-Methyl-2-buten-1-yl)oxy]-7h-furo[3,2-g][1]benzopyran-7-one]
- Intracellular ATP content (% of control) (SH-SY5Y cells [1]; inducer thapsigargin 0.5 μg/ml): 104.85 ± 5.13 % of control
- Intracellular ATP content (% of control) (SH-SY5Y cells [1]; inducer tunicamycin 1.0 μg/ml): 86.00 ± 1.18 % of control
- Cell survival rate (% of control) [2]: 101.16 ± 0.59 % of control
- XBP1p/18S mRNA (XBP1p): 4.01 ± 0.05
- MTT (% of control) (SH-SY5Y cells [3]; inducer thapsigargin 0.5 μg/ml): 86.23 ± 5.31 % of control
- MTT (% of control) (SH-SY5Y cells [3]; inducer tunicamycin 1.0 μg/ml): 84.93 ± 3.68 % of control
- GRP78/18S mRNA (GRP78): 2.97 ± 0.05
